Reference: US20060025380A1, “Formulations for non-parenteral use including hydrophobic cyclodextrins” (deCODE Chemistry Inc, priority 2004, published 2006)

Assay: Solubility of drug in aqueous cyclodextrin complexation media (dissolved drug by HPLC)
Format: physicochemical
Procedure: General procedure: Zero to 40% w/v of various cyclodextrins were dissolved in 0.25% (w/v) PVP polymer, 50 mM MgCl2 solutions with 50 to 150 mM of various amino acids, resulting in an aqueous complexation media. An excess amount of drug was added to the aqueous complexation media, with the suspension formed then sonicated for 60 minutes at 75° C. (some drugs can also be heated at 121° C. for 20 minutes in autoclave). After an equilibrium period, the drug suspensions were filtered and the amount of dissolved drug was determined by HPLC.
To provide further information as to a specific example, production of the third camptothecin formulation (with proline) listed below is described. 20% w/v of randomly methylated β-cyclodextrin was dissolved in 0.25% (w/v) CMC polymer, 50 mM MgCl2 solutions with 50 mM of Proline and 0.02M HCl (buffer). The drug concentration was 0.526±0.009 mg/ml.
To provide further information as to a specific example, production of the first trichlocarban formulation (with lysine) listed below is described. 20% w/v of randomly methlyated β-cyclodextrin was dissolved in 0.25% (w/v) PVP polymer, 50 mM MgCl2 solutions with 50 mM of L-Lysine hydrochloride. The drug concentration was 5.72±0.07 mg/ml.

## CC[C@@]1(O)C(=O)OCc2c1cc1n(c2=O)Cc2cc3ccccc3nc2-1 [Camptotechin, camptothecin]
50 mM Proline, 0.25% (w/v) CMC polymer, 50 mM MgCl2, 0.02M HCl
  Camptotechin (CPT) 20% RMβCD: 0.526 ± 0.009 mg/mL
50 mM Proline, 0.25% (w/v) CMC polymer, 50 mM MgCl2, 0.02M HCl, listed as camptothecin
  Camptotechin (CPT) 20% RMβCD: 0.526 ± 0.009 mg/mL
Cysteine
  Camptotechin (CPT) 20% RMβCD: 0.334 ± 0.025 mg/mL
Lysine
  Camptotechin (CPT) 20% RMβCD: 0.285 ± 0.010 mg/mL
No amino acid
  Camptotechin (CPT) 20% RMβCD: 0.228 ± 0.009 mg/mL
Tryptophan
  Camptotechin (CPT) 20% RMβCD: 0.375 ± 0.002 mg/mL
40% HPβCD (first column so headed, c2), Lysine
  Camptotechin (CPT) 40% HPβCD: 0.493 ± 0.015 mg/mL
40% HPβCD (second column so headed, c3), Lysine
  Camptotechin (CPT) 40% HPβCD: 0.439 ± 0.022 mg/mL

## O=C(Nc1ccc(Cl)cc1)Nc1ccc(Cl)c(Cl)c1 [Trichlocarban, trichlocarban]
  Trichlocarban (TCC) solubility, CD + poly: 2300 ± 240 µg/mL
  Trichlocarban (TCC) solubility, CD no AA: 2050 ± 150 µg/mL
  solubility of TCC with adipic acid: 5190 ± 210 µg/mL
  solubility of TCC with poly-lysine: 4810 ± 210 µg/mL
